Assays:
Experiment in all cases: normalised viability (% of control), CellTiter-Blue; higher = more viable cells (about 100 = DMSO control)
Conditions in all cases: incubation time: 72 h
[1] = tested on: MFM-223
Procedure, shortened: (§1)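 Breast cancer cell lines in 20 µl suspension were seeded onto 384-well plates pre-loaded with compound dissolved in 5 µl medium, then incubated 72 h. CellTiter-Blue reagent (2.5 µl) was added for 2 h at 37 °C and fluorescence read at 560/590 nm. Each plate was normalised to vehicle (100) and a positive kill control (0), with Z'-factor quality control. The value is normalised viability at one listed concentration of the series.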

[2] = tested on: MDA-MB-468
Procedure, shortened: as §1

[3] = tested on: MDA-MB-436
Procedure, shortened: as §1

[4] = tested on: HCC1599
Procedure, shortened: as §1

[5] = tested on: HCC1143
Procedure, shortened: as §1

[6] = tested on: CAL-120
Procedure, shortened: as §1

[7] = tested on: HCC1937
Procedure, shortened: as §1

[8] = tested on: BT-474
Procedure, shortened: as §1

[9] = tested on: MDA-MB-231
Procedure, shortened: as §1

[10] = tested on: HDQ-P1
Procedure, shortened: as §1

[11] = tested on: Hs578T
Procedure, shortened: as §1

[12] = tested on: SK-BR-3
Procedure, shortened: as §1

[13] = tested on: CAL-51
Procedure, shortened: as §1

[14] = tested on: DU-4475
Procedure, shortened: as §1

[15] = tested on: CAL-85-1
Procedure, shortened: as §1

[16] = tested on: BT-549
Procedure, shortened: as §1

[17] = tested on: MDA-MB-453
Method: (§2)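 DSRT, CellTiter-Blue viability, 72 h incubation. Signal is normalised to DMSO and benzethonium chloride controls. Value is the normalised response at dose 7.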

[18] = tested on: CAL-148
Method: as §2

[19] = tested on: HDQ-P1; remark: listed apart in the source
Method: as §2

[20] = tested on: CAL-51; remark: listed apart in the source
Method: as §2

[21] = tested on: DU-4475; remark: listed apart in the source
Method: as §2

[22] = tested on: CAL-85-1; remark: listed apart in the source
Method: as §2

[23] = tested on: MFM-223; remark: listed apart in the source
Procedure, shortened: as §1

[24] = tested on: MDA-MB-453; remark: listed apart in the source
Procedure, shortened: as §1

[25] = tested on: CAL-148; remark: listed apart in the source
Procedure, shortened: as §1

[26] = tested on: HCC1599; remark: listed apart in the source
Procedure, shortened: as §1

[27] = tested on: HCC1143; remark: listed apart in the source
Procedure, shortened: as §1

[28] = tested on: HCC1937; remark: listed apart in the source
Procedure, shortened: as §1

[29] = tested on: MDA-MB-231; remark: listed apart in the source
Procedure, shortened: as §1

[30] = tested on: HDQ-P1; remark: listed apart in the source
Procedure, shortened: as §1

[31] = tested on: SK-BR-3; remark: listed apart in the source
Procedure, shortened: as §1

[32] = tested on: CAL-51; remark: listed apart in the source
Procedure, shortened: as §1

[33] = tested on: DU-4475; remark: listed apart in the source
Procedure, shortened: as §1

[34] = tested on: BT-549; remark: listed apart in the source
Procedure, shortened: as §1

Cn1cncc1[C@@](N)(c1ccc(Cl)cc1)c1ccc2c(c1)c(-c1cccc(Cl)c1)cc(=O)n2C [Tipifarnib]
normalised viability ([1]; 10000 nM): 29.7% | normalised viability ([2]; 10000 nM): 26.4% | normalised viability ([3]; 10000 nM): 54.9% | normalised viability ([4]; 10000 nM): 51.7% | normalised viability ([5]; 10000 nM): 59.7% | normalised viability ([6]; 10000 nM): 32.7% | normalised viability ([7]; 10000 nM): 32.3% | normalised viability ([8]; 10000 nM): 45% | normalised viability ([9]; 10000 nM): 48.8% | normalised viability ([10]; 100 nM): 70.7% | normalised viability ([11]; 10000 nM): 39.3% | normalised viability ([12]; 10000 nM): 23.8% | normalised viability ([13]; 100 nM): 63.4% | normalised viability ([14]; 100 nM): 54.9% | normalised viability ([15]; 100 nM): 76.8% | normalised viability ([16]; 10000 nM): 30.1% | normalised viability ([17]; 1000 nM): 49.1% | normalised viability ([18]; 1000 nM): 42.9% | normalised viability ([19]; 1000 nM): 66.6% | normalised viability ([20]; 1000 nM): 59.9% | normalised viability ([21]; 1000 nM): 40.6% | normalised viability ([22]; 1000 nM): 62.8% | normalised viability ([23]; 10 nM): 84.6% | normalised viability ([24]; 3 nM): 102% | normalised viability ([25]; 3 nM): 92.2% | normalised viability ([26]; 10 nM): 92.7% | normalised viability ([27]; 10 nM): 71.9% | normalised viability ([28]; 10 nM): 95.6% | normalised viability ([29]; 10 nM): 82.2% | normalised viability ([30]; 3 nM): 74.6% | normalised viability ([31]; 10 nM): 91% | normalised viability ([32]; 3 nM): 108% | normalised viability ([33]; 3 nM): 99.4% | normalised viability ([34]; 10 nM): 86.3%

O=C1NC(=O)[C@@H](c2cn3c4c(cccc24)CCC3)[C@@H]1c1c[nH]c2ccccc12 [Tivantinib]
normalised viability ([1]; 1000 nM): 57.8% | normalised viability ([2]; 1000 nM): 42.4% | normalised viability ([3]; 1000 nM): 52.3% | normalised viability ([4]; 1000 nM): 79% | normalised viability ([5]; 1000 nM): 55.2% | normalised viability ([6]; 1000 nM): 29.7% | normalised viability ([7]; 1000 nM): 30.4% | normalised viability ([8]; 1000 nM): 45.4% | normalised viability ([9]; 1000 nM): 29.8% | normalised viability ([10]; 10 nM): 100% | normalised viability ([11]; 1000 nM): 19.9% | normalised viability ([12]; 1000 nM): 21.5% | normalised viability ([13]; 10 nM): 108% | normalised viability ([14]; 10 nM): 82.9% | normalised viability ([15]; 10 nM): 104% | normalised viability ([16]; 1000 nM): 26.8% | normalised viability ([17]; 100 nM): 78.1% | normalised viability ([18]; 100 nM): 112% | normalised viability ([19]; 100 nM): 106% | normalised viability ([20]; 100 nM): 104% | normalised viability ([21]; 100 nM): 109% | normalised viability ([22]; 100 nM): 77.2% | normalised viability ([23]; 1 nM): 83.8% | normalised viability ([24]; 0.3 nM): 122% | normalised viability ([25]; 0.3 nM): 97.9% | normalised viability ([26]; 1 nM): 115% | normalised viability ([27]; 1 nM): 90.7% | normalised viability ([28]; 1 nM): 67.8% | normalised viability ([29]; 1 nM): 106% | normalised viability ([30]; 0.3 nM): 104% | normalised viability ([31]; 1 nM): 105% | normalised viability ([32]; 0.3 nM): 104% | normalised viability ([33]; 0.3 nM): 107% | normalised viability ([34]; 1 nM): 107%

Source: the supplement of paper PMC4862054
